The text below walks through data of patent US20100137313A1 (ASTRAZENECA AB, priority 2008, published 2010).

Sequence of S. pneumoniae Topoisomerase IV ATPase (ParE) (Q59961 whole entry): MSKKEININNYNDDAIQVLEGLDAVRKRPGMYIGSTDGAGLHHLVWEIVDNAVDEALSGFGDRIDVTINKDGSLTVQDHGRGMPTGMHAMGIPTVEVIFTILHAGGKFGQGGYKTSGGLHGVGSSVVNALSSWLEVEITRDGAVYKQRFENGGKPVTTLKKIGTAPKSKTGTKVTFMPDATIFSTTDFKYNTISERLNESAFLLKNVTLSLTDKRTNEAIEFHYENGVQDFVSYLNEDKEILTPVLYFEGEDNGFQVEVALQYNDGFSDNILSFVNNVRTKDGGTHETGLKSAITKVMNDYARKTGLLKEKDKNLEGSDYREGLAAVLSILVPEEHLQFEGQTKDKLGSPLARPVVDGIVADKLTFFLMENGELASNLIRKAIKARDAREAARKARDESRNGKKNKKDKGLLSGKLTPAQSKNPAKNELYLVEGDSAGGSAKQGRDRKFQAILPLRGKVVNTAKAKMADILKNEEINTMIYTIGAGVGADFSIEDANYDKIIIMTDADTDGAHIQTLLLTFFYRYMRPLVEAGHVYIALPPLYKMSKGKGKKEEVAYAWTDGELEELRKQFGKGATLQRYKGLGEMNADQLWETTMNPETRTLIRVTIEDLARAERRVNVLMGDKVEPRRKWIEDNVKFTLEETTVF

The first assay concerns the target S. pneumoniae Topoisomerase IV ATPase (ParE) (Streptococcus pneumoniae serotype 4, UniProt Q59961). The assay can be described thus: S. pneumoniae Topoisomerase IV ATPase inhibition. Format: biochemical. To be noted: values marked * are an average of two or more data points. The gist of the method:
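Phosphate-release ATPase assay: 1.25 nM ParE, 160 μM ATP, DNA-stimulated. Quench with malachite green/molybdate in 1 M HCl, read 650 nm; IC50 from 10-point dose series.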
On to “(E)-3-{3-[2-(3- Methoxy-5- tetrazol-1-yl- phenylamino)- 4-morpholin-4- yl-pyrimnidin-5- yl]-phenyl}- acrylic acid [Example 406]”, for which the “% Inh (13 μM) of S. pneumoniae Topoisomerase IV ATPase” value was determined as 99%.

The same assay, now with this note: values marked * are an average of two or more data points, read-out: % Inh (13 μM) of S. pneumoniae Topoisomerase IV ATPase.
Regarding `CN(C)CCCNc1nc(Nc2ccc(F)c(Cl)c2)ncc1-c1ccc(C(=O)O)s1` [Example 17, 5-{2-(3-chloro-4-fluorophenylamino)-4-[3-(dimethylamino)propylamino]pyrimidin-5-yl}thiophene-2-carboxylic acid], the inhibition at 13 µM amounted to 54.8%.

As for `COc1cc(-c2cnc(Nc3ccc(F)c(Cl)c3)nc2NCCCN(C)C)cc(OC)c1OC` [Example 10, N^2-(3-chloro-4-fluorophenyl)-N^4-(3-(dimethylamino)propyl)-5-(3,4,5-trimethoxyphenyl)pyrimidin-2,4-diamine], the inhibition at 13 µM worked out at 99.3%.

Turning to `COc1cc(Nc2ncc(-c3cncnc3)c(NCCc3ccncc3)n2)cc(OC)c1` [Example 354, N^2-(3,5-dimethoxyphenyl)-N^4-(2-(pyridin-4-yl)ethyl)-5,5′-bipyrimidine-2,4-diamine], the inhibition at 13 µM came out at 80.5%.

Consider `Cc1cnc(C(=O)NCCCNc2nc(Nc3ccc(F)c(Cl)c3)ncc2-c2cccc(/C=C/C(=O)O)c2)cn1` [Example 292, (E)-3-(3-(2-(3-chloro-4-fluorophenylamino)-4-(3-(5-methylpyrazine-2-carboxamido)propylamino)-pyrimidin-5-yl)phenyl)acrylic acid], for which the inhibition at 13 µM came out at 81%.

On to `Cc1ccc(S(=O)(=O)n2ccc3cc(Nc4ncc(-c5cncc(C(=O)O)c5)c(-n5nc(C(F)(F)F)cc5C)n4)ccc32)cc1` [Example 667, 5-{2-({1-[(4-methylphenyl)sulfonyl]-1H-indol-5-yl}amino)-4-[5-methyl-3-(trifluoromethyl)-1H-pyrazol-1-yl]pyrimidin-5-yl}pyridine-3-carboxylic acid], for which the inhibition at 13 µM turned out to be 56%.

On to `Cc1cc(F)cc(Nc2ncc(-c3cncc(C(=O)O)c3)c(-n3ccc(C(F)(F)F)n3)n2)c1` [Example 770, 5-{2-[(3-fluoro-5-methylphenyl)-amino]-4-[3-(trifluoromethyl)-1H-pyrazol-1-yl]pyrimidin-5-yl}pyridine-3-carboxylic acid], for which the inhibition at 13 µM worked out at 100%.

Take `Cc1cc(C)n(-c2nc(Nc3ccc(F)c(Cl)c3)ncc2-c2cccc(/C=C/C(=O)O)c2)n1` [Example 321, (2E)-3-(3-{2-[(3-chloro-4-fluorophenyl)amino]-4-(3,5-dimethyl-1H-pyrazol-1-yl)pyrimidin-5-yl}phenyl)prop-2-enoic acid]: the inhibition at 13 µM came to 83.7%.

Turning to `CN(C)CCCNc1nc(Nc2ccc(F)c(Cl)c2)ncc1-c1ccc(C(=O)N2CCCCC2)s1` [Example 369, (5-(2-(3-chloro-4-fluorophenylamino)-4-(3-(dimethylamino)propylamino)pyrimidin-5-yl)thiophen-2-yl) (piperidin-1-yl) methanone], the inhibition at 13 µM was determined as 122%.

With `COc1ncc(-c2cnc(Nc3cc(C)cc(F)c3)nc2-n2ccc(C(F)(F)F)n2)cc1C(=O)O` [Example 754, 5-{2-[(3-fluoro-5-methylphenyl)-amino]-4-[3-(trifluoromethyl)-1H-pyrazol-1-yl]pyrimidin-5-yl}-2-methoxypyridine-3-carboxylic acid], the inhibition at 13 µM is 100%.

With `CC(=O)N1CCN(c2nc(Nc3ccc(F)c(Cl)c3)ncc2-c2cccc(/C=C/C(=O)O)c2)CC1` [Example 288, (E)-3-(3-(4-(4-acetylpiperazin-1-yl)-2-(3-chloro-4-fluorophenylamino)-pyrimidin-5-yl)phenyl)acrylic acid], the inhibition at 13 µM came to 82.9%.

For the molecule `COCCCNc1nc(Nc2ccc(F)c(Cl)c2)ncc1-c1cncc(C(=O)O)c1` [Example 277, 5-(2-(3-chloro-4-fluorophenylamino)-4-(3-methoxypropylamino)-pyrimidin-5-yl)nicotinic acid], the inhibition at 13 µM was determined as 85.9%.

Take `Cc1cc(C(F)(F)F)nn1-c1nc(Nc2ccc(F)c(Cl)c2)ncc1-c1cnc(OCCO)c(C(=O)O)c1` [Example 1134, 5-(2-(3-chloro-4-fluorophenylamino)-4-(5-methyl-3-(trifluoromethyl)-1H-pyrazol-1-yl)pyrimidin-5-yl)-2-(2-hydroxyethoxy)nicotinic acid]: the inhibition at 13 µM was found to be 100%.

For the molecule `Cc1cc(C)n(-c2nc(Nc3ccc(F)c(Cl)c3)ncc2-c2cncc(C(=O)O)c2)n1` [Example 316, 5-{2-[(3-chloro-4-fluorophenyl)amino]-4-(3,5-dimethyl-1H-pyrazol-1-yl)pyrimidin-5-yl}pyridine-3-carboxylic acid], the inhibition at 13 µM was found to be 80%.

In the case of `CCNC(=O)c1ccc(-c2cnc(Nc3ccc(F)c(Cl)c3)nc2NCCCN(C)C)cc1` [Example 363, 4-(2-(3-chloro-4-fluorophenylamino)-4-(3-(dimethylamino)propylamino)pyrimidin-5-yl)-N-ethylbenzamide], the inhibition at 13 µM turned out to be 57.9%.

For the molecule `Cc1cc(C(=O)O)nc(-c2cnc(Nc3ccc(F)c(Cl)c3)nc2-n2ccc(C(F)(F)F)n2)n1` [Example 879, 2′-(3-chloro-4-fluorophenylamino)-6-methyl-4′-(3-(trifluoromethyl)-1H-pyrazol-1-yl)-2,5′-bipyrimidine-4-carboxylic acid], the inhibition at 13 µM turned out to be 91%.

As to `O=C(O)[C@H]1CCCN1c1cccc(-c2cnc(Nc3ccc(F)c(Cl)c3)nc2-n2ccc(C(F)(F)F)n2)c1` [Example 600, 1-(3-{2-[(3-chloro-4-fluorophenyl)amino]-4-[3-(trifluoromethyl)-1H-pyrazol-1-yl]pyrimidin-5-yl}phenyl)-D-proline], the inhibition at 13 µM was 100%.

Regarding `CCOC(=O)c1cncc(-c2cnc(Nc3ccc(F)c(Cl)c3)nc2N2CCN(C(C)=O)CC2)c1` [Example 142, ethyl 5-(4-(4-acetylpiperazin-1-yl)-2-(3-chloro-4-fluorophenylamino)pyrimidin-5-yl)nicotinate], the inhibition at 13 µM amounted to 86.2%.

Consider `COCCn1cc(C(=O)O)c(=O)c2cc(-c3cnc(Nc4ccc(F)c(Cl)c4)nc3N3CCOCC3)ccc21` [Example 303, 6-(2-(3-chloro-4-fluorophenylamino)-4-morpholinopyrimidin-5-yl)-1-(2-methoxyethyl)-4-oxo-1,4-dihydroquinone-3-carboxylic acid], for which the inhibition at 13 µM is 82%.

Take `Cc1cc(C(F)(F)F)nn1-c1nc(Nc2ccc(F)c(Cl)c2)ncc1-c1cnc(OCCc2ccncc2)c(C(=O)O)c1` [Example 871, 5-(2-(3-chloro-4-fluorophenylamino)-4-(5-methyl-3-(trifluoromethyl) 1H-pyrazol-1-yl)pyrimidin-5-yl)-2-(2-(pyridin-4-yl)ethoxy)nicotinic acid]: the inhibition at 13 µM is 100%.

`O=C(O)/C=C/c1cccc(-c2cnc(Nc3ccc(F)c(Cl)c3)nc2-n2cnc(C(F)(F)F)c2)c1` [Example 332, (2E)-3-(3-{2-[(3-chloro-4-fluorophenyl)amino]-4-[4-(trifluoromethyl)-1H-imidazol-1-yl]pyrimidin-5-yl}phenyl)prop-2-enoic acid]: the inhibition at 13 µM was 62.1%.

As to `COc1ncc(-c2cnc(Nc3cc(C)cc(C)c3)nc2-n2nc(C(F)(F)F)cc2C)cc1C(=O)O` [Example 646, 5-{2-[(3,5-dimethylphenyl)amino]-4-[5-methyl-3-(trifluoromethyl)-1H-pyrazol-1-yl]pyrimidin-5-yl}-2-methoxypyridine-3-carboxylic acid], the inhibition at 13 µM came to 100%.

With `O=C(O)c1cncc(-c2cnc(Nc3cc(F)cc(F)c3)nc2N2CCOCC2)c1` [Example 388, 5-[2-(3,5-Difluoro-phenylamino)-4-morpholin-4-yl-pyrimidin-5-yl]nicotinic acid], the inhibition at 13 µM came to 72%.

`CC(=O)NCCNc1nc(Nc2ccc(F)c(Cl)c2)ncc1-c1cncc(C(=O)O)c1` [Example 221, 5-[4-(2-Acetylamino-ethylamino)-2-(3-chloro-4-fluoro-phenylamino)-pyrimidin-5-yl]-nicotinic acid]: the inhibition at 13 µM came to 81%.

Regarding `COc1cc(Nc2ncc(-c3cccc(/C=C/C(=O)O)c3)c(NCCc3ccncc3)n2)cc(OC)c1` [Example 353, (E)-3-(3-(2-(3,5-dimethoxyphenyl-amino)-4-(2-(pyridin-4-yl)ethylamino)pyrimidin-5-yl)phenyl) acrylic acid], the inhibition at 13 µM amounted to 83.9%.

On to `COc1cccc(-c2cnc(Nc3ccc(F)c(Cl)c3)nc2NCCCN(C)C)c1` [Example 26, N^2-(3-chloro-4-fluorophenyl)-N^4-[3-(dimethylamino)propyl]-5-(3-methoxyphenyl)-pyrimidine-2,4-diamine], for which the inhibition at 13 µM was 91.7%.

As to `COCCNc1ncc(-c2cnc(Nc3ccc(F)c(Cl)c3)nc2-n2ccc(C(F)(F)F)n2)cc1C(=O)O` [Example 1079, 5-(2-(3-Chloro-4-fluorophenylamino)-4-(3-(trifluoromethyl)-1H-pyrazol-1-yl)pyrimidin-5-yl)-2-(2-methoxyethylamino)nicotinic acid], the inhibition at 13 µM amounted to 100%.

As to `COc1cc(Nc2ncc(-c3cc(C(=O)O)c(=O)n(C)c3)c(-n3nc(C(F)(F)F)cc3C)n2)cc(OC)c1` [Example 918, 5-(2-(3,5-dimethoxyphenylamino)-4-(5-methyl-3-(trifluoromnethyl)-1H-pyrazol-1-yl)poyrimidin-5-yl)-1-methyl-2-oxo-1,2-dihydropyridine-3-carboxylic acid], the inhibition at 13 µM was 100%.

As to `CCN1CCC(CNc2nc(Nc3ccc(F)c(Cl)c3)ncc2-c2cnc(OC)nc2)CC1` [Example 468, N2-(3-chloro-4-fluorophenyl)-N4-((1-ethylpiperidin-4-yl)methyl)-2′-methoxy-5,5′-bipyrimidine-2,4-diamine], the inhibition at 13 µM is 80%.

`COc1ccc(-c2cnc(Nc3ccc(F)c(Cl)c3)nc2NCCCN(C)C)cc1C(F)(F)F` [Example 7, N^2-(3-chloro-4-fluorophenyl)-N^4-(3-(dimethylamino)propyl)-5-(4-methoxy-3(trifluoromethyl)phenyl)pyrimidine-2,4-diamine]: the inhibition at 13 µM is 98.7%.
